According to patent US20260152533A1, “COMBINATION INHIBITORS FOR TREATING FIBROSIS” (Memorial Sloan-Kettering Cancer Center, priority 2021, published 2026):
Entries after “also recorded” stand apart in the source; their conditions may differ.

Key:
NIH-3T3 cells [1] = experiment: Western blot of NIH-3T3 cells (collagen I, GCN2, ATF4, PC); format: cell-based, mouse; settings: for rescue of TGFβ-induced collagen I depletion: metabolite; for GCN2 activation: cell-permeable metabolite
Source text: PSCs were isolated from C57BL/6 mice by differential centrifugation as previously described^49 and their mesenchymal origin was validated by analyzing the expression of various mesenchymal and epithelial markers. MFBs were isolated from FVB/N mice by differential centrifugation as previously described^50. DB7 mouse breast cancer cells were obtained from Alexander Borowsky (University of California Davis Comprehensive Cancer Center, Sacramento, CA, USA) through an MTA to Ohio State University (OSU). KPC (Kras^LSL-G12D; Trp53^LSL-R172H; Pdx1-Cre) mouse PDAC cells were a gift from Scott Lowe (Memorial Sloan Kettering Cancer Center. (MSKCC)). All cells were cultured at 37° C. in 5% carbon dioxide (CO2) and 20% oxygen (O2) and were maintained in Dulbecco's Modified Eagles medium (DMEM) (25 mM D-glucose, 2 mM L-glutamine) supplemented with 10% fetal bovine serum (FBS) (Gemini), 100 units/ml penicillin and 100 μg/ml streptomycin. Primary PSC and MFB cells were kept in culture for no more than ten passages. Experiments with iCAFs and myCAFs were performed as previously described^29. In brief, qPSCs were generated by culturing PSCs in a dome of GFR Matrigel (Corning) in DMEM; iCAFs were generated by culturing PSCs in a dome of GFR Matrigel in DMEM conditioned by KPC cells for 48 h; myCAFs were generated by monolayer culture of PSCs. Differentiation was validated by analyzing the expression of iCAF/myCAF markers^29. For experiments with different glutamine concentrations, cells were seeded in regular DMEM and the medium was changed 5-6 hours later or the following day to glucose and glutamine-free DMEM supplemented with 10% dialyzed FBS (Gemini) and 20 mM D-glucose, 2 mM L-glutamine (100%), 0.4 mM L-glutamine (20%) or 0.2 mM L-glutamine (10%). All media were prepared by the Media Preparation Facility at MSKCC. Cells were verified as mycoplasma-free by the MycoAlert Mycoplasma Detection Kit (Lonza).
Lysates were generated by incubating cells or ground tumors in RIPA buffer (Millipore); […] of cleared lysate were analyzed by SDS-polyacrylamide gel electrophoresis (SDS-PAGE) as previously described^11. […] The following secondary antibodies were used: anti-rabbit horseradish peroxidase (HRP) (1:5,000; GE, NA934V), anti-mouse HRP (1:5,000; GE, NA931). Quantification of band intensities of collagen I relative to […] or vinculin in tumor allograft experiments was performed with Image Lab software v6.0 (Bio-Rad).

NIH-3T3 cells [2] = experiment: Relative metabolite abundance (GC-MS), NIH-3T3 cells; format: cell-based, mouse; settings: for TGFβ-induced depletion of TCA cycle intermediates and NEAAs: 10% Gln, metabolite 5 mM, 48 hours (FIG. 8I)
Experimental: Cells were plated in six-well cell culture plates at a concentration aimed to reach 0.5-1×10^6 cells at the time of harvest. For quantification of relative metabolite abundance, cells were cultured with glutamine-free DMEM containing different concentrations of L-glutamine and supplemented with 10% dialyzed FBS and in some experiments were treated with TGFβ for 48 hours. For the [U-^13C]and [3,4-^13C]glucose tracing experiments, cells were cultured as above, and in the last 8 hours media was replaced with DMEM without D-glucose and L-glutamine supplemented with 2 mM or 0.2 mM L-glutamine and 10 mM [U-^13C]or [3,4-^13C]D-glucose (Cambridge Isotope Laboratories) and 10% dialyzed FBS. […] For relative quantification of metabolites by gas chromatography-mass spectroscopy (GC-MS), cells were washed briefly with PBS, which was then fully aspirated and metabolism was quenched by immediately adding 1 mL of 80:20 methanol:water stored at −80° C. containing 20 μM deuterated 2-hydroxyglutarate (d5-2HG) as an internal standard. […]
GC-MS measurements were performed as described before^11. Ions used for quantification of metabolite levels were as follows: d5-2HG m/z 354; citrate m/z 465; alpha-ketoglutarate m/z 304; succinate m/z 247; fumarate m/z 245; malate m/z 335; aspartate m/z 232; hydroxyproline m/z 332; proline m/z 216; glutamate m/z 246; glutamine m/z 245; lactate m/z 219; pyruvate m/z 174. […] For relative quantification of cell samples, integrated peak areas were normalized to the internal standard d5-2HG and to the packed cell volume of each sample. Absolute quantification of hydroxyproline in tumor acid hydrolysates was performed against a standard curve of commercial trans-4-hydroxy-L-proline (Sigma). […]

[3] = PC-deleted cells, low Gln, 48 hours (FIG. 4B; MFBs FIG. 11E)
[4] = low Gln (10%), TGFβ, 48 hours (FIG. 1E)

| Compound | rescue of TGFβ-induced collagen I depletion (NIH-3T3 cells [1]; 10% Gln, TGFβ, 48 hours) | collagen I levels (NIH-3T3 cells [1]; [3]) | GCN2 activation (NIH-3T3 cells [1]; low Gln (10%), TGFβ, 48 hours) | TGFβ-induced depletion of TCA cycle intermediates and NEAAs (NIH-3T3 cells [2]) | collagen I production (NIH-3T3 cells [1]; 10% Gln, TGFβ) | collagen I levels (NIH-3T3 cells [1]; 20% Gln, TGFβ, 48 hours (FIG. 1B)) | repressive phosphorylation of the E1α subunit of the pyruvate dehydrogenase (PDH) complex (NIH-3T3 cells [1]; 100% Gln, TGFβ 48 hours (FIG. 3B)) | collagen I levels in growing cells (NIH-3T3 cells [1]; 100% and 50% Gln, TGFβ, 48 hours) | PC protein levels (NIH-3T3 cells [1]; all fibroblast types analysed, TGFβ 48 hours) | ATF4 (NIH-3T3 cells [1]; [4]) | GCN2 phosphorylation (NIH-3T3 cells [1]; [4]) | free levels of most TCA cycle intermediates (NIH-3T3 cells [2]; low Gln (10%), TGFβ, 48 hours (FIG. 1H)) |
| --- | --- | --- | --- | --- | --- | --- | --- | --- | --- | --- | --- | --- |
| COC(=O)CC[C@H](N)C(=O)OC [dm-Glu, L-glutamic acid dimethylester] | sufficient to restore | increased | prevented | rescued | – | – | – | – | – | – | – | – |
| TGFβ: transforming growth-factor beta; TGFβ-1 purchased from Peprotech | – | – | – | – | ceased to proliferate and produce collagen I | no longer able to increase | reduced | upregulated | reduced | upregulated | displayed phosphorylation | substantially reduced |
| COC(=O)CCC(=O)C(=O)OC [dm-αKG, dimethyl alpha-ketoglutarate] | able to rescue | increased | prevented; also recorded: suppressed | rescued | – | – | – | – | – | – | – | – |
